Data on one compound can be found in patent US10245237B2, “Compressed tablet containing cannabidiol, method for its manufacture and use of such tablet in oral treatment of psychosis or anxiety disorders” (Echo Pharmaceuticals B.V., priority 2013, dated 2019).

The test system of one data set is schizophrenic patient. To be noted: cited from earlier work.
For data set [1] the following is noted: A. J. Poortman, H. Huizer, Forensic Science International (1999); cited from earlier work.
The nature of data set [2]: Rate of dissolution of CBD according to Ph. Eur. 2.9.3 for oral tablets. Particulars: 1 wt. % SDS in water, pH 7, 36-41° C. It is filed as physicochemical. As for the experimental part: The rate of dissolution of CBD from the compressed tablets described in Example 2 was tested according to European Pharmacopeia (Ph. Eur. 2.9.3) for oral tablets. The rate of dissolution of pure CBD (20 mg) was determined using the same method.
The dissolution medium consisted of a solution of 1 wt. % SDS in water. The pH of the medium had been adjusted to 7 with diluted HCl. During the experiments, the temperature of the dissolution media was maintained between 36 and 41° C. under stirring. After dropping the tablet in the dissolution medium, samples were taken at various time intervals with a disposable syringe. The samples were filtered immediately over a syringe filter into a HPLC vial and analyzed by HPLC.

Consider `C=C(C)[C@@H]1CCC(C)=C[C@H]1c1c(O)cc(CCCCC)cc1O` [CBD, cannabidiol], for which the symptom course result in the data set on schizophrenic patient (patient with schizophrenia, dose doubled every 5 days, at 1280 mg/day) was “trend for symptom improvement”. Besides, in the data set with schizophrenic patient (schizophrenic patient, CBD dissolved in oil up to 1500 mg/day for 4 weeks), the “clinical course during CBD treatment” value was “significant improvement”. Besides, the “stability of the drug” value in data set [1] was “unstable”. Moreover, the “% (w/w) of CBD dissolved” value was 2.6 % (w/w) in data set [2] (1 min); 9.2 % (w/w) in data set [2] (4 min); 18.6 % (w/w) in data set [2] (8 min); 27.4 % (w/w) in data set [2] (15 min); 35.2 % (w/w) in data set [2] (30 min); 42.4 % (w/w) in data set [2] (45 min). Moreover, the “% (w/w) of CBD dissolved” value in data set [2] (60 min) is on record as 45.5 % (w/w).
